Results from patent US9695155B2, “Herbicidal substituted pyrimidinyloxy benzene compounds” (E. I. DU PONT DE NEMOURS AND COMPANY, priority 2013, dated 2017).

How the values were obtained:
[1] = tested on: large (Lg) crabgrass; assay: Test A postemergence; type: in vivo, Digitaria sanguinalis; settings: 0 to 100 scale where 0 is no effect and 100 is complete control; for Crabgrass, Large plant response rating: 125 g ai/ha; for Plant response rating, Crabgrass, Large: 500 g ai/ha
Summary of the method: (§1)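 Greenhouse pot test, loam/sand soil. Formulation: non-phytotoxic solvent mix plus surfactant. Pre: directed spray onto soil after sowing. Post: plants at 1–2 leaf, 2–10 cm. Rated visually vs untreated controls at ~10 d, 0 (no effect) to 100 (complete control).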

[2] = tested on: giant foxtail; assay: Test A postemergence; type: in vivo, Setaria faberii; settings: 0 to 100 scale where 0 is no effect and 100 is complete control; for Foxtail, Giant plant response rating: 125 g ai/ha; for Plant response rating, Foxtail, Giant: 500 g ai/ha
Summary of the method: as §1

[3] = tested on: morningglory; assay: Test A postemergence; type: in vivo, Ipomoea spp.; settings: 0 to 100 scale where 0 is no effect and 100 is complete control; for Morningglory plant response rating: 125 g ai/ha; for Plant response rating, Morningglory: 500 g ai/ha
Summary of the method: as §1

[4] = tested on: corn; assay: Test A postemergence; type: in vivo, Zea mays; settings: 0 to 100 scale where 0 is no effect and 100 is complete control; for Corn plant response rating: 125 g ai/ha; for Plant response rating, Corn: 500 g ai/ha
Summary of the method: as §1

[5] = tested on: Italian ryegrass; assay: Test C postemergence; type: in vivo, Lolium multiflorum; settings: for Plant response rating (0 to 100), Ryegrass, Italian: 16 g ai/ha, 0 is no effect, 100 is complete control; for Ryegrass, Italian plant response rating: 31 g ai/ha, 13 to 15 days; for Ryegrass, Italian plant response rating / Plant response rating, Ryegrass, Italian: scale 0 to 100 (0 no effect, 100 complete control)
From the text: (§2) Seeds of plant species selected from blackgrass (Alopecurus myosuroides), Italian ryegrass (Lolium multiflorum), wheat, winter (winter wheat, Triticum aestivum), galium (catchweed bedstraw, Galium aparine), corn (Zea mays), large (Lg) crabgrass (Digitaria sanguinalis), giant foxtail (Setaria faberii), johnsongrass (Sorghum halepense), lambsquarters (Chenopodium album), morningglory (Ipomoea coccinea), yellow nutsedge (Cyperus esculentus), pigweed (Amaranthus retroflexus), ragweed (common ragweed, Ambrosia elatior), soybean (Glycine max), barnyardgrass (Echinochloa crus-galli), oilseed rape (Brassica napus), waterhemp (common waterhemp, Amaranthus rudis), kochia (Kochia scoparia), wild oat (Avena fatua), surinam grass (Brachiaria decumbens), foxtail, green (green foxtail, Setaria viridis), goosegrass (Eleusine indica), bromegrass, downy (downy bromegrass, Bromus tectorum), nightshade (eastern black nightshade, Solanum ptycanthum), cocklebur (common cocklebur, Xanthium strumarium), cupgrass, woolly (woolly cupgrass, Eriochloa villosa), bermudagrass (Cynodon dactylon), sunflower, (common oilseed sunflower, Helianthus annuus), Russian thistle (Salsola kali), and velvetleaf (Abutilon theophrasti) were planted into a blend of loam soil and sand and treated preemergence with test chemicals formulated in a non-phytotoxic solvent mixture which included a surfactant.
(§3) At the same time, plants selected from these crop and weed species and also barley, winter (winter barley, Hordeum vulgare), windgrass (Apera spica-venti), chickweed (common chickweed, Stellaria media), deadnettle (henbit deadnettle, Lamium amplexicaule), and canarygrass (littleseed canarygrass, Phalaris minor) were planted in pots containing Redi-Earth® planting medium (Scotts Company, 14111 Scottslawn Road, Marysville, Ohio 43041) comprising spaghnum peat moss, vermiculite, wetting agent and starter nutrients and treated with postemergence applications of test chemicals formulated in the same manner. Plants ranged in height from 2 to 18 cm (1- to 4-leaf stage) for postemergence treatments. Treated plants and controls were maintained in a greenhouse for 13 to 15 days, after which time all species were compared to controls and visually evaluated. Plant response ratings, summarized in Table C, are based on a scale of 0 to 100 where 0 is no effect and 100 is complete control. A dash (-) response means no test result.

[6] = tested on: pigweed; assay: Test C postemergence; type: in vivo, Amaranthus retroflexus; settings: for Plant response rating (0 to 100), Pigweed: 16 g ai/ha, 0 is no effect, 100 is complete control; for Pigweed plant response rating: 31 g ai/ha, 13 to 15 days; for Pigweed plant response rating / Plant response rating, Pigweed: scale 0 to 100 (0 no effect, 100 complete control)
From the text: as §2, §3

[7] = tested on: kochia; assay: Test C postemergence; type: in vivo, Kochia scoparia; settings: for Plant response rating (0 to 100), Kochia: 16 g ai/ha, 0 is no effect, 100 is complete control; for Kochia plant response rating: 31 g ai/ha, 13 to 15 days; for Kochia plant response rating / Plant response rating, Kochia: scale 0 to 100 (0 no effect, 100 complete control)
From the text: as §2, §3

[8] = tested on: velvetleaf; assay: Test C postemergence; type: in vivo, Abutilon theophrasti
From the text: as §2, §3

[9] = tested on: chickweed; assay: Test C postemergence; type: in vivo, Stellaria media; settings: for Plant response rating (0 to 100), Chickweed: 16 g ai/ha, 0 is no effect, 100 is complete control; for Chickweed plant response rating: 31 g ai/ha, 13 to 15 days; for Chickweed plant response rating / Plant response rating, Chickweed: scale 0 to 100 (0 no effect, 100 complete control)
From the text: as §2, §3

[10] = 125 g ai/ha, postemergence, visual rating

Q: With FC(F)(F)c1cnn(-c2c(Br)cccc2Oc2ncc(Cl)cn2)c1 [Compound 191] as the compound, how does the “Crabgrass, Large plant response rating” value [1] read?
A: 50

Q: What about the “Plant response rating, Crabgrass, Large” value [1] of the same compound?
A: 90

Q: And the “Foxtail, Giant plant response rating” value [2]?
A: 50

Q: And the “Plant response rating, Foxtail, Giant” value [2]?
A: 90

Q: What about the “Morningglory plant response rating” value [3] of the same compound?
A: 80

Q: And the “Plant response rating, Morningglory” value [3]?
A: 100

Q: What about the “Corn plant response rating” value [4] of the same compound?
A: 20

Q: And the “Plant response rating, Corn” value [4]?
A: 40

Q: And the “Plant response rating (0 to 100), Ryegrass, Italian” value ([5]; postemergence)?
A: 0

Q: What about the “Ryegrass, Italian plant response rating” value ([5]; postemergence, visual rating) of the same compound?
A: 0

Q: And the “Plant response rating, Ryegrass, Italian” value [5, 10]?
A: 5

Q: What about the “Plant response rating, Ryegrass, Italian” value ([5]; Postemergence, 62 g ai/ha) of the same compound?
A: 5

Q: And the “Plant response rating (0 to 100), Pigweed” value ([6]; postemergence)?
A: 95

Q: And the “Pigweed plant response rating” value ([6]; postemergence, visual rating)?
A: 85

Q: And the “Plant response rating, Pigweed” value [6, 10]?
A: 98

Q: And the “Plant response rating, Pigweed” value ([6]; Postemergence, 62 g ai/ha)?
A: 95

Q: And the “Plant response rating (0 to 100), Kochia” value ([7]; postemergence)?
A: 85

Q: And the “Kochia plant response rating” value ([7]; postemergence, visual rating)?
A: 95

Q: What about the “Plant response rating, Kochia” value [7, 10] of the same compound?
A: 100

Q: And the “Plant response rating, Kochia” value ([7]; Postemergence, 62 g ai/ha)?
A: 98

Q: And the “Plant response rating (0 to 100), Velvetleaf” value ([8]; 16 g ai/ha, postemergence, 0 is no effect, 100 is complete control)?
A: 50

Q: What about the “Velvetleaf plant response rating” value ([8]; 31 g ai/ha, postemergence, visual rating, scale 0 to 100 (0 no effect, 100 complete control), 13 to 15 days) of the same compound?
A: 65

Q: What about the “Plant response rating, Velvetleaf” value ([8]; 125 g ai/ha, postemergence, visual rating, scale 0 to 100 (0 no effect, 100 complete control)) of the same compound?
A: 65

Q: And the “Plant response rating, Velvetleaf” value ([8]; Postemergence, 62 g ai/ha, scale 0 to 100 (0 no effect, 100 complete control))?
A: 75

Q: And the “Plant response rating (0 to 100), Chickweed” value ([9]; postemergence)?
A: 10

Q: And the “Chickweed plant response rating” value ([9]; postemergence, visual rating)?
A: 80

Q: What about the “Plant response rating, Chickweed” value [9, 10] of the same compound?
A: 98

Q: What about the “Plant response rating, Chickweed” value ([9]; Postemergence, 62 g ai/ha) of the same compound?
A: 80

Q: For FC(F)c1cccc(Oc2ncc(Br)cn2)c1-n1cc(C(F)(F)F)cn1 [Compound 163], which “Crabgrass, Large plant response rating” value [1] is on record?
A: 30

Q: What about the “Plant response rating, Crabgrass, Large” value [1] of the same compound?
A: 90

Q: And the “Foxtail, Giant plant response rating” value [2]?
A: 50

Q: And the “Plant response rating, Foxtail, Giant” value [2]?
A: 90

Q: And the “Morningglory plant response rating” value [3]?
A: 90

Q: And the “Plant response rating, Morningglory” value [3]?
A: 100

Q: And the “Corn plant response rating” value [4]?
A: 30

Q: And the “Plant response rating, Corn” value [4]?
A: 50

Q: What about the “Plant response rating (0 to 100), Ryegrass, Italian” value ([5]; postemergence) of the same compound?
A: 0

Q: What about the “Ryegrass, Italian plant response rating” value ([5]; postemergence, visual rating) of the same compound?
A: 0

Q: And the “Plant response rating, Ryegrass, Italian” value [5, 10]?
A: 10

Q: What about the “Plant response rating, Ryegrass, Italian” value ([5]; Postemergence, 62 g ai/ha) of the same compound?
A: 0

Q: And the “Plant response rating (0 to 100), Pigweed” value ([6]; postemergence)?
A: 80

Q: What about the “Pigweed plant response rating” value ([6]; postemergence, visual rating) of the same compound?
A: 85

Q: What about the “Plant response rating, Pigweed” value [6, 10] of the same compound?
A: 90

Q: What about the “Plant response rating, Pigweed” value ([6]; Postemergence, 62 g ai/ha) of the same compound?
A: 90

Q: What about the “Plant response rating (0 to 100), Kochia” value ([7]; postemergence) of the same compound?
A: 90

Q: What about the “Kochia plant response rating” value ([7]; postemergence, visual rating) of the same compound?
A: 90

Q: What about the “Plant response rating, Kochia” value [7, 10] of the same compound?
A: 100

Q: And the “Plant response rating, Kochia” value ([7]; Postemergence, 62 g ai/ha)?
A: 100

Q: What about the “Plant response rating (0 to 100), Chickweed” value ([9]; postemergence) of the same compound?
A: 40

Q: What about the “Chickweed plant response rating” value ([9]; postemergence, visual rating) of the same compound?
A: 80

Q: And the “Plant response rating, Chickweed” value [9, 10]?
A: 95

Q: And the “Plant response rating, Chickweed” value ([9]; Postemergence, 62 g ai/ha)?
A: 80
